This is an account of results in US5332742A, “Renin inhibitors” (Abbott Laboratories, priority 1993, dated 1994).

One test has as its target T1, human renal renin (Homo sapiens, UniProt P00797).
T1 construct: human renal renin, free from acid proteolytic activity; from tissue; host or cells: human kidney ('renal')
T1 sequence (P00797 67-406): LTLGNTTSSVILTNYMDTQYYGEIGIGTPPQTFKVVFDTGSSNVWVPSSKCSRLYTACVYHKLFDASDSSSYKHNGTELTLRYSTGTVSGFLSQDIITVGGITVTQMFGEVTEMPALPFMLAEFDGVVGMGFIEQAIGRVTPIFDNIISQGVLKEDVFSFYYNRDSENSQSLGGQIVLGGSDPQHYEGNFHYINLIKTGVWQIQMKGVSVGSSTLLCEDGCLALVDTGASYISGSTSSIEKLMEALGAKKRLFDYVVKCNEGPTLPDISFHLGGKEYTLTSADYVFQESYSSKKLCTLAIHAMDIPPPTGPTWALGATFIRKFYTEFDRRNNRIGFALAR
The test can be described thus: In vitro inhibition of human renal renin (angiotensin I formation measured by radioimmunoassay). The class given is biochemical. The settings on record: human renal renin with human angiotensinogen, 37 degrees C., pH 6.5. Here is the method: At the end of the incubation, the amount of angiotensin I formed is measured by radioimmunoassay and the molar concentration required to cause 50% inhibition, expressed as the IC50 is calculated .

Test [1] in a line: Mean arterial blood pressure in salt-depleted dogs after i.v. or p.o. dosing. The class given is in vivo, dog. The settings on record: salt-depleted male beagle dogs; 10 mg/kg i.v. (in D5W) or 10 mg/kg p.o. (in methylcellulose); FIG. 1A. The protocol: (§1) Male beagle dogs (8-12 kg, Marshall/Hazelton) were converted to a salt-depleted status by dosing on the three consecutive days prior to the experiment with furosemide (Phoenix Pharmaceuticals, 10 mg/kg i.m.) and by placing them on a low sodium diet (approximately 2-5 meq/day; H/D; Hills Pet Products). Prior to the study, each dog was instrumented with an indwelling catheter ana conditioned to stand calmly in a restraining sling for periods of up to 8 hours. On the morning of the experiment, the arteriai catheter was connected to a Sorenson Transpac II® pressure transducer (Abbott Laboratories). For dogs receiving intravenous (i.v.) doses, a catheter (Abbott; 16 ga Venocath) was introduced in a rear leg saphenous vein by venipuncture. For dogs receiving receiving oral (p.o.) doses by garage, an 18 Fr. suction catheter (Mallinckrodt Critical Care) was used. Data samples of systemic hemodynamic variables were acquired by the MI2 computer at 5 minute intervals beginning 90 minutes prior to administration of the test compound and ending 6 hours after dosing. Arterial blood smaples (3.0 ml) to determine plasma drug concentrations and plasma renin activity (PRA) were taken for i.v. doses at -60, -30, 3, 10, 30, 60, 120, 240 and 360 minutes an for p.o. doses at --60, -30, 15, 30, 60, 90, 120, 180 and 360 minutes relative to the time of test compound administration. […]

The target of another test is T2, renin (Canis lupus familiaris, UniProt Q6DYE7).
T2 construct: from tissue; host or cells: circulating plasma renin of salt-depleted beagle dogs (in vivo)
T2 sequence (Q6DYE7 66-403): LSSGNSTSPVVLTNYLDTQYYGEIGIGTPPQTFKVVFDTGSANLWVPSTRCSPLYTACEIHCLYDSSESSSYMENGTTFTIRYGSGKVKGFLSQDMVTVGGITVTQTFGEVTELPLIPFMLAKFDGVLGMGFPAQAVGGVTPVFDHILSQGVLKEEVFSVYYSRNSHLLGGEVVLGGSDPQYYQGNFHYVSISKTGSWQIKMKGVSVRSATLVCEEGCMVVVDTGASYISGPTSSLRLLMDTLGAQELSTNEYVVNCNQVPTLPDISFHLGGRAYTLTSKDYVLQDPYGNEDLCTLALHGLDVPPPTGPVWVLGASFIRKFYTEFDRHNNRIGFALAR
The test can be described thus: Plasma renin activity (PRA) in salt-depleted dogs after i.v. or p.o. dosing. The test is classed as in vivo, dog. The following applies: salt-depleted male beagle dogs; 10 mg/kg i.v. (in D5W) or 10 mg/kg p.o. (in methylcellulose); FIG. 1B. The protocol: as §1

In the case of `CC(C)C[C@H](O)[C@H](O)[C@H](CC1CCCCC1)NC(=O)[C@H](Cc1cscn1)NC(=O)[C@H](Cc1ccccc1)CS(=O)(=O)N1CCNCC1` [Example 6D, (2S)-2-Benzyl-3-(piperazin-4-ylsulfonyl)propionyl-(L)-(4-Thiazolyl)Ala Amide of (2 S, 3R, 4S)-2-Amin0-1-cyclohexyl-3,4-dihydroxy-6-methylheptane], inhibition against human renal renin was half-maximal at 0.33 nM (IC50). Regarding `CC(C)C[C@H](O)[C@H](O)[C@H](CC1CCCCC1)NC(=O)[C@H](Cc1cscn1)NC(=O)[C@H](Cc1ccccc1)CS(=O)(=O)N1CC[N+](C)([O-])CC1` [Example 10B, (2S)-2-Benzyl-3-(1-methyl-1-oxo-piperazin-4-ylsulfonyl)propionyl-(L)-(4Thiazolyl)Ala Amide of (2S,3R,4S)-2-Amino-1-cyclohexyl-3,4-dihydroxy-6-methylheptane], it took 0.3 nM to reach half-maximal inhibition at human renal renin (IC50). Consider `CC(C)C[C@H](O)[C@H](O)[C@H](CC1CCCCC1)NC(=O)[C@H](Cc1cscn1)NC(=O)[C@H](Cc1ccccc1)CS(=O)(=O)N1CCNC(=O)C1` [Example 11F], for which the IC50 against human renal renin is 0.28 nM. `CC(C)C[C@H](O)[C@H](O)[C@H](CC1CCCCC1)NC(=O)[C@H](Cc1cscn1)N(C)C(=O)C(CCc1ccccc1)NS(=O)(=O)N1CCN(C)CC1` (stereo partly drawn) [Example 12F, (4-Methylpiperazin-1-yl) sulfonyl-(Phenylmethyl)alanine-N-Methyl-3-(4-thiazolyl)-L-alanine Amide of (2S,3R,4S)-2-Amino-1-cyclohexyl-3,4-dihydroxy-6-methylheptane] registered an IC50 at human renal renin of 0.45 nM.

The compound `CC(C)C[C@H](O)[C@H](O)[C@H](CC1CCCCC1)NC(=O)[C@H](Cc1cscn1)NC(=O)C(Cc1ccccc1)NS(=O)(=O)N1CCN(C)CC1` (stereo partly shown) [Example 13C] came in with an IC50 on human renal renin of 0.22 nM.

On to `CC(C)C[C@H](O)[C@H](O)[C@H](CC1CCCCC1)NC(=O)[C@H](Cc1cscn1)NC(=O)[C@H](Cc1ccccc1)CS(=O)(=O)N1CCN(C)CC1.CS(=O)(=O)O` [Example 17B, (2S)-2-Benzyl-3-(1-methyl-piperazin-4-ylsulfonyl) propionyl-(L)-(4-Thiazolyl)Ala Amide of (2S,3R,4S)-2-Amino-1-cyclohexyl-3,4-dihydroxy-6-methylheptane methanesulfonate salt], for which the “mean arterial pressure (MAP)” value in test [1] is “effective for reducing blood pressure”. Further, at renin, the “plasma renin activity (PRA)” value is “inhibits renin in vivo”.

As a reminder, the IC50 is the concentration at which inhibition is half-maximal.
